Patent US20220151236A1, “NOVEL OXADIAZOLE COMPOUNDS FOR CONTROLLING OR PREVENTING PHYTOPATHOGENIC FUNGI” (PI INDUSTRIES LTD., priority 2019, published 2022)
Where a name gives a salt, the structure may show the parent alone.

System: Phakopsora pachyrhizi
Experiment: Phakopsora pachyrhizi Test on Soybean (preventive activity, greenhouse)
Assay type: in vivo
Conditions: preventive spray on young Soybean plants, inoculated one day after treatment, rated 3, 7, 10 and 15 days after application, read-out: Efficacy (% control), disease severity compared to the untreated check
Description: Compounds were dissolved in 2% dimethyl sulfoxide/acetone and then mixed with water containing an emulsifier to a calibrated spray volume of 50 mL. This 50 mL spray solution was poured into spray bottles for further applications. To test the preventive activity of compounds, healthy young Soybean plants raised in the greenhouse were sprayed with the active compound preparation at the stated application rates inside the spray cabinets using hollow cone nozzles. One day after treatment, the plants were inoculated with a spore suspension containing 2×10^5 Phakopsora pachyrhizi conidia. The inoculated plants were then kept in a greenhouse chamber at 22-24° C. temperature and 80-90% relative humidity for disease expression. A visual assessment of the compound's performance was carried out by rating the disease severity (0-100% scale) on treated plants 3, 7, 10 and 15 days after application. Efficacy (% control) of the compounds was calculated by comparing the disease rating in the treatment with the one of the untreated control. The sprayed plants were also assessed for plant compatibility by recording symptoms like necrosis, chlorosis and stunting.

SMILES	pest or weed control at 500 ppm
O=C(NCc1cccc(Cl)c1)c1cn2ccc(-c3noc(C(F)(F)F)n3)cc2n1 [Compound 40, N-(3-chlorobenzyl)-7-(5-(trifluoromethyl)-1,2,4-oxadiazol-3-yl)imidazo[1,2-a]pyridine-2-carboxamide]	≥ 70%
COc1cccc(CNC(=O)c2cn3ccc(-c4noc(C(F)(F)F)n4)cc3n2)c1 [Compound 41, N-(3-methoxybenzyl)-7-(5-(trifluoromethyl)-1,2,4-oxadiazol-3-yl)imidazo[1,2-a]pyridine-2-carboxamide]	≥ 70%
O=C(NCc1ccccc1F)c1cn2ccc(-c3noc(C(F)(F)F)n3)cc2n1 [Compound 42, N-(2-fluorobenzyl)-7-(5-(trifluoromethyl)-1,2,4-oxadiazol-3-yl)imidazo[1,2-a]pyridine-2-carboxamide]	≥ 70%
CN(C)c1ccc(CNC(=O)c2cn3ccc(-c4noc(C(F)(F)F)n4)cc3n2)cc1 [Compound 43, N-(4-(dimethylamino)benzyl)-7-(5-(trifluoromethyl)-1,2,4-oxadiazol-3-yl)imidazo[1,2-a]pyridine-2-carboxamide]	≥ 70%
O=C(NCc1ccc(Cl)c(Cl)c1)c1cn2ccc(-c3noc(C(F)(F)F)n3)cc2n1 [Compound 44, N-(3,4-dichlorobenzyl)-7-(5-(trifluoromethyl)-1,2,4-oxadiazol-3-yl)imidazo[1,2-a]pyridine-2-carboxamide]	≥ 70%
CCOC(=O)c1cn2ccc(-c3noc(C(F)(F)F)n3)cc2n1 [Compound 45, ethyl 7-(5-(trifluoromethyl)-1,2,4-oxadiazol-3-yl)imidazo[1,2-a]pyridine-2-carboxylate hydrobromide]	≥ 70%
FC(F)(F)c1nc(-c2ccn3cc(CSc4ccc(Cl)cc4)nc3c2)no1 [Compound 47, 3-(2-(((4-chlorophenyl)thio)methyl)imidazo[1,2-a]pyridin-7-yl)-5-(trifluoromethyl)-1,2,4-oxadiazole]	≥ 70%
Fc1ccc(SCc2cn3ccc(-c4noc(C(F)(F)F)n4)cc3n2)cc1 [Compound 48, 3-(2-(((4-fluorophenyl)thio)methyl)imidazo[1,2-a]pyridin-7-yl)-5-(trifluoromethyl)-1,2,4-oxadiazole]	≥ 70%
O=S(=O)(Cc1cn2ccc(-c3noc(C(F)(F)F)n3)cc2n1)c1ccc(F)cc1 [Compound 57, 3-(2-(((4-fluorophenyl)sulfonyl)methyl)imidazo[1,2-a]pyridin-7-yl)-5-(trifluoromethyl)-1,2,4-oxadiazole]	≥ 70%
O=S(=O)(Cc1cn2ccc(-c3noc(C(F)(F)F)n3)cc2n1)c1ccccc1 [Compound 58, 3-(2-((phenylsulfonyl)methyl)imidazo[1,2-a]pyridin-7-yl)-5-(trifluoromethyl)-1,2,4-oxadiazole]	≥ 70%
O=S(=O)(Cc1cn2ccc(-c3noc(C(F)(F)F)n3)cc2n1)c1ccccc1F [Compound 59, 3-(2-(((2-fluorophenyl)sulfonyl)methyl)imidazo[1,2-a]pyridin-7-yl)-5-(trifluoromethyl)-1,2,4-oxadiazole]	≥ 70%
O=C(NCc1ccc(C(F)(F)F)cc1)c1cn2cc(-c3noc(C(F)(F)F)n3)ccc2n1 [Compound 63, 6-(5-(trifluoromethyl)-1,2,4-oxadiazol-3-yl)-N-(4-(trifluoromethyl)benzyl)imidazo[1,2-a]pyridine-2-carboxamide]	≥ 70%
O=C(c1cn2cc(-c3noc(C(F)(F)F)n3)ccc2n1)N1CCOCC1 [Compound 64, morpholino(6-(5-(trifluoromethyl)-1,2,4-oxadiazol-3-yl)imidazo[1,2-a]pyridin-2-yl)methanone]	≥ 70%
CC(C)CNC(=O)c1cn2cc(-c3noc(C(F)(F)F)n3)ccc2n1 [Compound 66, N-isobutyl-6-(5-(trifluoromethyl)-1,2,4-oxadiazol-3-yl)imidazo[1,2-a]pyridine-2-carboxamide]	≥ 70%
O=C(NC1CCCC1)c1cn2cc(-c3noc(C(F)(F)F)n3)ccc2n1 [Compound 67, N-cyclopentyl-6-(5-(trifluoromethyl)-1,2,4-oxadiazol-3-yl)imidazo[1,2-a]pyridine-2-carboxamide]	≥ 70%
COC1CCN(C(=O)c2cn3cc(-c4noc(C(F)(F)F)n4)ccc3n2)C1 (stereo not shown) [Compound 68, (3-methoxypyrrolidin-1-yl)(6-(5-(trifluoromethyl)-1,2,4-oxadiazol-3-yl)imidazo[1,2-a]pyridin-2-yl)methanone]	≥ 70%
O=C(NCC1CC1)c1cn2cc(-c3noc(C(F)(F)F)n3)ccc2n1 [Compound 70, N-(cyclopropylmethyl)-6-(5-(trifluoromethyl)-1,2,4-oxadiazol-3-yl)imidazo[1,2-a]pyridine-2-carboxamide]	≥ 70%

SMILES	pest or weed control at 500 ppm
CN(Cc1ccccc1)C(=O)c1cn2cc(-c3noc(C(F)(F)F)n3)ccc2n1 [Compound 71, N-benzyl-N-methyl-6-(5-(trifluoromethyl)-1,2,4-oxadiazol-3-yl)imidazo[1,2-a]pyridine-2-carboxamide]	≥ 70%
CC(NC(=O)c1cn2cc(-c3noc(C(F)(F)F)n3)ccc2n1)c1ccccc1 (stereo not shown) [Compound 72, N-(1-phenylethyl)-6-(5-(trifluoromethyl)-1,2,4-oxadiazol-3-yl)imidazo[1,2-a]pyridine-2-carboxamide]	≥ 70%
N#CC1(NC(=O)c2cn3cc(-c4noc(C(F)(F)F)n4)ccc3n2)CC1 [Compound 73, N-(1-cyanocyclopropyl)-6-(5-(trifluoromethyl)-1,2,4-oxadiazol-3-yl)imidazo[1,2-a]pyridine-2-carboxamide]	≥ 70%
O=C(NCc1cccc(Cl)c1)c1cn2cc(-c3noc(C(F)(F)F)n3)ccc2n1 [Compound 75, N-(3-chlorobenzyl)-6-(5-(trifluoromethyl)-1,2,4-oxadiazol-3-yl)imidazo[1,2-a]pyridine-2-carboxamide]	≥ 70%
COc1cccc(CNC(=O)c2cn3cc(-c4noc(C(F)(F)F)n4)ccc3n2)c1 [Compound 76, N-(3-methoxybenzyl)-6-(5-(trifluoromethyl)-1,2,4-oxadiazol-3-yl)imidazo[1,2-a]pyridine-2-carboxamide]	≥ 70%
O=C(NCc1ccc(Cl)cc1)c1cn2cc(-c3noc(C(F)(F)F)n3)ccc2n1 [Compound 77, N-(4-chlorobenzyl)-6-(5-(trifluoromethyl)-1,2,4-oxadiazol-3-yl)imidazo[1,2-a]pyridine-2-carboxamide]	≥ 70%
CC(C)CN(C)C(=O)c1cn2cc(-c3noc(C(F)(F)F)n3)ccc2n1 [Compound 78, N-isobutyl-N-methyl-6-(5-(trifluoromethyl)-1,2,4-oxadiazol-3-yl)imidazo[1,2-a]pyridine-2-carboxamide]	≥ 70%
CCOC(=O)c1cn2cc(-c3noc(C(F)(F)F)n3)ccc2n1 [Compound 79, ethyl 6-(5-(trifluoromethyl)-1,2,4-oxadiazol-3-yl)imidazo[1,2-a]pyridine-2-carboxylate]	≥ 70%
COc1ccc(C(=O)NCc2cn3cc(-c4noc(C(F)(F)F)n4)ccc3n2)cc1 [Compound 82, 4-methoxy-N-((6-(5-(trifluoromethyl)-1,2,4-oxadiazol-3-yl)imidazo[1,2-a]pyridin-2-yl)methyl)benzamide]	≥ 70%
O=C(NCc1cn2cc(-c3noc(C(F)(F)F)n3)ccc2n1)c1ccc(Cl)cc1 [Compound 83, 4-chloro-N-((6-(5-(trifluoromethyl)-1,2,4-oxadiazol-3-yl)imidazo[1,2-a]pyridin-2-yl)methyl)benzamide]	≥ 70%
CCC(=O)NCc1cn2cc(-c3noc(C(F)(F)F)n3)ccc2n1 [Compound 88, N-((6-(5-(trifluoromethyl)-1,2,4-oxadiazol-3-yl)imidazo[1,2-a]pyridin-2-yl)methyl)propionamide]	≥ 70%
O=C(NCc1cn2cc(-c3noc(C(F)(F)F)n3)ccc2n1)c1ccc(F)cc1 [Compound 90, 4-fluoro-N-((6-(5-(trifluoromethyl)-1,2,4-oxadiazol-3-yl)imidazo[1,2-a]pyridin-2-yl)methyl)benzamide]	≥ 70%
O=C(NCc1cn2cc(-c3noc(C(F)(F)F)n3)ccc2n1)c1cccc(F)c1 [Compound 93, 3-fluoro-N-((6-(5-(trifluoromethyl)-1,2,4-oxadiazol-3-yl)imidazo[1,2-a]pyridin-2-yl)methyl)benzamide]	≥ 70%
O=C(NCc1cn2cc(-c3noc(C(F)(F)F)n3)ccc2n1)c1ccncc1 [Compound 99, N-((6-(5-(trifluoromethyl)-1,2,4-oxadiazol-3-yl)imidazo[1,2-a]pyridin-2-yl)methyl)isonicotinamide]	≥ 70%
COc1ccc(SCc2cn3cc(-c4noc(C(F)(F)F)n4)ccc3n2)cc1 [Compound 100, 3-(2-(((4-methoxyphenyl)thio)methyl)imidazo[1,2-a]pyridin-6-yl)-5-(trifluoromethyl)-1,2,4-oxadiazole]	≥ 70%
FC(F)(F)c1nc(-c2ccc3nc(CSc4ccccc4)cn3c2)no1 [Compound 101, 3-(2-((phenylthio)methyl)imidazo[1,2-a]pyridin-6-yl)-5-(trifluoromethyl)-1,2,4-oxadiazole]	≥ 70%
Fc1cccc(SCc2cn3cc(-c4noc(C(F)(F)F)n4)ccc3n2)c1 [Compound 104, 3-(2-(((3-fluorophenyl)thio)methyl)imidazo[1,2-a]pyridin-6-yl)-5-(trifluoromethyl)-1,2,4-oxadiazole]	≥ 70%
